Data as given in patent publication US8486651B2, “Method for treating a disorder associated with Eya dysregulation by modulating Eya phosphatase activity” (Children's Hospital Medical Center, priority 2008, dated 2013).

Legend:
Eya = Eya phosphatase activity pNPP screen, plate controls; type: biochemical; details: plate control
Method: Phosphatase Activity Assay. Phosphatase activity of Eya is measured using the p-nitrophenyl phosphate (pNPP) assay. In this assay, reaction mixtures of approximately 60 uL in 20 mM MES (pH 5.5), various concentrations of pNPP and cations are pre-equilibrated at 30° C. for 10 minutes. The assay is initiated by the addition of 0.3 ug of enzyme in 20 mM Tris (pH 8.0) and 150 mM NaCl. The reaction mixture is incubated for 20 minutes, and then quenched with 100 uL of 0.4 M EDTA, pH 10.0. Release of p-nitrophenol (pNP) is monitored by measuring absorbance at a wavelength of 410 (A410) and extrapolating the values into the Michaelis-Menten equation using SIGMAPLOT (SPSS Science, Chicago, Ill.). pNP release can be plotted as a function of time when various enzyme concentrations are used.
The protocol is substantially that described in references 4, 17 and 18. Eya phosphatase activity is measured using the model chromogenic substrate p-nitro-phenylphosphate (pNPP) as described. […] To ensure data quality and assay robustness, the Z value is used. The Z value is based on the difference between the signal of the positive control (ie, no test compound) and that of the negative control (no Eya protein or polypeptide). The Z value incorporates the standard deviation of each signal. A Z value of 1.0 is considered perfect, and Z values above 0.5 are generally considered ideal for HTS. […] In both the primary and secondary screen, every plate also contains three additional controls: 20 mM Na-o-vanadate (which inhibits Eya), 20 mM EDTA (which inhibits 100% of Eya activity) and 50 mM NaF (which inhibits Eya).

[1] = tested on: T1, Six2 fragment derived from mouse Six protein (SEQ ID NO. 6)
T1 sequence: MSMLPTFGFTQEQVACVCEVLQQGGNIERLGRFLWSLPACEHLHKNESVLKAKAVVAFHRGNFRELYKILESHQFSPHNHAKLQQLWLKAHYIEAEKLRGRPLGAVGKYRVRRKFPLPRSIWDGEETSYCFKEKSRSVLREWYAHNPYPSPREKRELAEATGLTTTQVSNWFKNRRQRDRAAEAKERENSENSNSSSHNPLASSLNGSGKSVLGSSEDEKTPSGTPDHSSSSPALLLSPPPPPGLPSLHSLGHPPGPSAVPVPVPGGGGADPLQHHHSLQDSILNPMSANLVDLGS

human SIX6 = target: T2, human SIX6 (UniProt O95475)
T2 sequence: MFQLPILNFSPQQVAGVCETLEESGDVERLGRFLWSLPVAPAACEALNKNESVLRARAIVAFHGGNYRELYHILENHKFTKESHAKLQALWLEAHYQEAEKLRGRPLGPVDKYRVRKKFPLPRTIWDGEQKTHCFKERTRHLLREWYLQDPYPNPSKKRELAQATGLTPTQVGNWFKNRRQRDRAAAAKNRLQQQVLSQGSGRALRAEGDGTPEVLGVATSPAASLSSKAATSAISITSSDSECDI

[2] = tested on: T3, histone H2AX C-terminus peptide (KKATQASQEpY)
T3 sequence: KKATQASQEY

[Na+].[Na+].[Na+].[O]=[V]([O-])([O-])[O-] [Na-o-vanadate]
inhibition of Eya (Eya; 20 mM Na-o-vanadate): inhibits Eya

O=C(O)CN(CCN(CC(=O)O)CC(=O)O)CC(=O)O [EDTA]
inhibition of Eya activity (Eya; 20 mM EDTA): 100%

[F-].[Na+] [NaF]
inhibition of Eya (Eya; 50 mM NaF): inhibits Eya

Full-length murine Eya3
kcat of Eya3 (dephosphorylation of the H2AX-pY peptide, malachite-green type phosphate release), with stoichiometric SIX2 [1]: The interaction with these SIX proteins increases the kcat of Eya3, while the Km values remain relatively similar. | kcat of Eya3 (dephosphorylation of the H2AX-pY peptide, malachite-green type phosphate release), with stoichiometric SIX6 (human SIX6): The interaction with these SIX proteins increases the kcat of Eya3, while the Km values remain relatively similar. | catalytic rate of dephosphorylation of the tyrosine-phosphorylated H2AX peptide [2]: The ability of Eya3 to dephosphorylate a tyrosine-phosphorylated peptide derived from H2AX was monitored in the presence or absence of stoichiometric amounts of either SIX2 or SIX6. The catalytic rate at increasing concentrations of H2AX-pY peptide was measured.
